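Test compounds were applied to cells in 96-well plates for 48 hours at 5 doses. TGI is the concentration that stops growth completely.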
Assays:
Assay in all cases: inhibition of tumour cell growth, NCI panel, 48 h
786-0 renal = test system: 786-0 renal
A549 NSCLC = test system: A549 NSCLC
IGROV1 ovarian = test system: IGROV1 ovarian
OVCAR-3 ovarian = test system: OVCAR-3 ovarian
OVCAR-5 ovarian = test system: OVCAR-5 ovarian
SF-268 CNS = test system: SF-268 CNS
SN12C renal = test system: SN12C renal
SR leukemia = test system: SR leukemia
T-47D breast = test system: T-47D breast
TK-10 renal = test system: TK-10 renal
UO-31 renal = test system: UO-31 renal

Compound | TGI (786-0 renal) [µM] | TGI (A549 NSCLC) [µM] | TGI (IGROV1 ovarian) [µM] | TGI (OVCAR-3 ovarian) [µM] | TGI (OVCAR-5 ovarian) [µM] | TGI (SF-268 CNS) [µM] | TGI (SN12C renal) [µM] | TGI (SR leukemia) [µM] | TGI (T-47D breast) [µM] | TGI (TK-10 renal) [µM] | TGI (UO-31 renal) [µM]
CC1(C)C(C#N)C1C1=C(N2CCOCC2)[C@]2(C)C(OC(=O)c3ccccc3)CC[C@@H]2C1 (some centres undefined) | > 100 | > 100 | > 100 | > 100 | > 100 | > 100 | > 100 | > 100 | > 100 | > 100 | > 100
Brc1ccc2[nH]cc(-c3csc(-c4c[nH]c5ccccc45)n3)c2c1 | 5.27 | 20.2 | 11.6 | 11.8 | 4.86 | 8.91 | 14.2 | 10.4 | 26.9 | 12 | 11.3
CC(=O)OC(OC(C)=O)c1ccc2ccc3cccc4ccc1c2c34 | > 100 | > 100 | 54.1 | > 100 | 41.8 | 91.7 | > 100 | > 100 | 68 | 21.4 | 44.6
Fc1ccc2c(c1)nc1n2C(c2c(Cl)cccc2Cl)SC1 (centres undefined) | 29.5 | 28.2 | 27.1 | 26 | 28.9 | 29.6 | 31 | > 100 | 38.4 | 31.6 | 28.7
CC(=O)Nc1sc(Br)cc1S(=O)(=O)c1ccc(Cl)cc1 | 92.3 | 90.5 | > 100 | 47.2 | > 100 | > 100 | > 100 | 50.5 | 68.5 | > 100 | 83.1
O=C1C=CC(=O)c2c1ccc1c3ccccc3n(CCCCCn3c4ccccc4c4ccc5c(c43)C(=O)C=CC5=O)c21 | 14.3 | > 100 | 20.6 | 34.4 | > 78.1 | 32.7 | 41.5 | 6.22 | 24.5 | 26.8 | 16.4
CN=C(n1ccnc1)n1ccnc1 | > 100 | > 100 | > 100 | > 100 | > 100 | > 100 | > 100 | > 100 | > 100 | > 100 | > 100
CCCC(=O)NC(NC1CCCCC1)(C(=O)OCC)C(F)(F)F (centres undefined) | > 100 | > 100 | > 100 | > 100 | > 100 | > 100 | > 100 | > 100 | > 100 | > 100 | > 100
CC(C)(C)OC(=O)NC1CCCCC1NC(=O)C(=O)NC1CCCCC1NC(=O)OC(C)(C)C (centres undefined) | > 100 | > 100 | > 100 | > 100 | > 100 | > 100 | > 100 | > 100 | > 100 | > 100 | > 100

— PubChem BioAssay (NCI)
